Assay results as given in patent US20260008787A1, “FUSED RING KRAS INHIBITORS FOR TREATING DISEASE” (BLOSSOMHILL THERAPEUTICS, INC., priority 2022, published 2026).
pIC50: −log10 of the molar value.

Columns and labels:
PANC0403 (KRAS G12D) = test: Cell proliferation assay Method B (5 days), PANC0403; format: cell-based; conditions: Homo sapiens, Panc 04.03, 120 h, 96-well, read-out: Anti-Cell Proliferation IC50 (nM), PANC0403
Procedure: (§1) Method B: Two thousand KRAS mutant cells per well were seeded in 96-well black plate and then treated with indicated compounds for 5 days at 37° C. and 5% CO2. Cell proliferation was measured using CellTiter-Glo 2.0 luciferase-based ATP detection assay (Promega, Madison, WI) following the manufacturer's protocol. IC50 values were determined using Prism software (GraphPad Software, San Diego, CA).

[1] = system: Phospho-ERK in H2291 (KRAS G12F) cells; test: Kinase phosphorylation assay (Phospho-ERK), H2291; format: cell-based; conditions: Homo sapiens, NCI-H2291, 3 hours treatment, normalized to β-actin, read-out: pERK ½ IC50 (nM), H2291
Procedure: (§2) KRAS mutant cells were plated in clear bottom 96 well plates at a density of 50,000-120,000 cells per well. Cells were allowed to attach overnight and then treated with compounds for 3 hours. After treatment, cells were fixed with 10% buffered formalin for 20 minutes at room temperature, washed with PBS, and then permeabilized with ice cold 100% methanol for 10 minutes to overnight at −20° C. Odyssey Blocking Buffer (LiCOR Biosciences: 927-60001) was added to each well for 1 hour at room temperature prior to incubation with primary antibodies overnight at 4° C. The primary antibodies used were as follows: Phospho-ERK (Cell Signaling: CS-9101) diluted to 1:250 and […] (Cell Signaling: CS-3700) diluted to 1:2000 in Odyssey Blocking Buffer+0.05% Tween20. Plates were washed 3× with Wash Buffer (PBS+0.1% Tween20) and incubated with secondary antibodies for 2 hours at room temperature. The following secondary antibodies were used: goat anti-rabbit-800 (LI-COR: 926-32211) and goat anti-mouse-680 (LICOR: 926-68070) both diluted to 1:2000 in Odyssey Blocking Buffer+0.05% Tween20. […] Phospho-ERK signal was normalized to β-actin signal for each well and the percent of DMSO control values were calculated. IC50 values were calculated using the sigmoidal dose-response (variable slope) equation in GraphPad Prism 4.

SW620 (KRAS G12V) [2] = test: Cell proliferation assay (CellTiter-Glo, 72 hours), SW620; format: cell-based; conditions: Homo sapiens, SW-620, 72 h, 384-well, CellTiter-Glo 2.0
Procedure: as §1, with “Two” for “Method B: Two”, “384-well white” for “96-well black”, “72 hours” for “5 days”

H2291 (KRAS G12F) = test: Cell proliferation assay Method B (5 days), H2291; format: cell-based; conditions: Homo sapiens, NCI-H2291, 120 h, 96-well, read-out: Anti-Cell Proliferation IC50 (nM), H2291
Procedure: as §1

HPAC (KRAS G12D) = test: Cell proliferation assay Method B (5 days), HPAC; format: cell-based; conditions: Homo sapiens, 120 h, 96-well, read-out: Anti-Cell Proliferation IC50 (nM), HPAC
Procedure: as §1

[3] = system: Phospho-ERK in SW620 (KRAS G12V) cells; test: Kinase phosphorylation assay (Phospho-ERK), SW620; format: cell-based; conditions: Homo sapiens, SW-620, 3 hours treatment, normalized to β-actin, read-out: pERK ½ IC50 (nM), SW620
Procedure: as §2

H358 (KRAS G12C) = test: Cell proliferation assay Method B (5 days), H358; format: cell-based; conditions: Homo sapiens, NCI-H358, 120 h, 96-well, read-out: Anti-Cell Proliferation IC50 (nM), H358
Procedure: as §1

PANC0504 (KRAS G12D) = test: Cell proliferation assay Method B (5 days), PANC0504; format: cell-based; conditions: Panc 05.04, 120 h, 96-well, read-out: Anti-Cell Proliferation IC50 (nM), PANC0504
Procedure: as §1

[4] = system: Phospho-ERK in AGS (KRAS G12D) cells; test: Kinase phosphorylation assay (Phospho-ERK), AGS; format: cell-based; conditions: 3 hours treatment, normalized to β-actin, read-out: pERK ½ IC50 (nM), AGS
Procedure: as §2

GP2D (KRAS G12D) [5] = test: Cell proliferation assay Method B (5 days), GP2D; format: cell-based; conditions: 120 h, 96-well, read-out: Anti-Cell Proliferation IC50 (nM), GP2D
Procedure: as §1

MiaPaCa2 (KRAS G12C) = test: Cell proliferation assay Method B (5 days), MiaPaCa2; format: cell-based; conditions: Homo sapiens, MIA PaCa-2, 120 h, 96-well, read-out: Anti-Cell Proliferation IC50 (nM), MiaPaCa2
Procedure: as §1

AGS (G12D) = test: Cell proliferation assay (CellTiter-Glo, 72 hours), AGS; format: cell-based; conditions: 72 h, 384-well, CellTiter-Glo 2.0
Procedure: as §1, with “Two” for “Method B: Two”, “384-well white” for “96-well black”, “72 hours” for “5 days”

GP2D (KRAS G12D) [6] = test: Cell proliferation assay (CellTiter-Glo, 72 hours), GP2D; format: cell-based; conditions: GP2d, 72 h, 384-well, CellTiter-Glo 2.0
Procedure: as §1, with “Two” for “Method B: Two”, “384-well white” for “96-well black”, “72 hours” for “5 days”

HCT116 (KRAS G13D) = test: Cell proliferation assay Method B (5 days), HCT116; format: cell-based; conditions: Homo sapiens, HCT-116, 120 h, 96-well, read-out: Anti-Cell Proliferation IC50 (nM), HCT116
Procedure: as §1

H23 (KRAS G12C) = test: Cell proliferation assay Method B (5 days), H23; format: cell-based; conditions: 120 h, 96-well, read-out: Anti-Cell Proliferation IC50 (nM), H23
Procedure: as §1

AsPC1 (KRAS G12D) = test: Cell proliferation assay Method B (5 days), AsPC1; format: cell-based; conditions: Homo sapiens, ASPC1, 120 h, 96-well, read-out: Anti-Cell Proliferation IC50 (nM), AsPC1
Procedure: as §1

CAPAN-2 (KRAS G12V) = test: Cell proliferation assay Method B (5 days), CAPAN-2; format: cell-based; conditions: Homo sapiens, Capan-2, 120 h, 96-well, read-out: Anti-Cell Proliferation IC50 (nM), CAPAN-2
Procedure: as §1

SW620 (KRAS G12V) [7] = test: Cell proliferation assay Method B (5 days), SW620; format: cell-based; conditions: Homo sapiens, SW-620, 120 h, 96-well, read-out: Anti-Cell Proliferation IC50 (nM), SW620
Procedure: as §1

AGS (KRAS G12D) = test: Cell proliferation assay Method B (5 days), AGS; format: cell-based; conditions: 120 h, 96-well, read-out: Anti-Cell Proliferation IC50 (nM), AGS
Procedure: as §1

[8] = system: Phospho-ERK in HCT116 (KRAS G13D) cells; test: Kinase phosphorylation assay (Phospho-ERK), HCT116; format: cell-based; conditions: Homo sapiens, HCT-116, 3 hours treatment, normalized to β-actin, read-out: pERK ½ IC50 (nM), HCT116
Procedure: as §2

KRAS G12V = KRAS G12V (Homo sapiens, UniProt P01116, G12V); test: biochemical
KRAS G12D = KRAS G12D (Homo sapiens, UniProt P01116, G12D); test: biochemical
Chain of KRAS G12D (P01116 1-188 isoform P01116-2 G12D): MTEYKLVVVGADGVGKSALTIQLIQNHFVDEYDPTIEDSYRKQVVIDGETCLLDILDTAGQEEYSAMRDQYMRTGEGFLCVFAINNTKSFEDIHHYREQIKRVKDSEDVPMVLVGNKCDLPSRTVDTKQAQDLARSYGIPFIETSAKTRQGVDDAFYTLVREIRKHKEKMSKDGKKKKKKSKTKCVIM

Chain of KRAS G12V (P01116 1-188 isoform P01116-2 G12V): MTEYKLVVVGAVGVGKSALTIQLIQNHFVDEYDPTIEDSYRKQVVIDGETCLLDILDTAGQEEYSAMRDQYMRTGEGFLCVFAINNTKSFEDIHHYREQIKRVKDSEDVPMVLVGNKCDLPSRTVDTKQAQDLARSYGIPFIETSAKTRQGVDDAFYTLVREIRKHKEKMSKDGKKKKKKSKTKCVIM

| Structure (SMILES) | IC50 (PANC0403 (KRAS G12D)) [nM] | IC50 [1] [nM] | pIC50 (SW620 (KRAS G12V) [2]) | IC50 (H2291 (KRAS G12F)) [nM] | IC50 (HPAC (KRAS G12D)) [nM] | IC50 [3] [nM] | IC50 (H358 (KRAS G12C)) [nM] | IC50 (PANC0504 (KRAS G12D)) [nM] | IC50 [4] [nM] | IC50 (GP2D (KRAS G12D) [5]) [nM] | IC50 (MiaPaCa2 (KRAS G12C)) [nM] | pIC50 (AGS (G12D)) | pIC50 (GP2D (KRAS G12D) [6]) | IC50 (HCT116 (KRAS G13D)) [nM] | IC50 (H23 (KRAS G12C)) [nM] | IC50 (AsPC1 (KRAS G12D)) [nM] | IC50 (CAPAN-2 (KRAS G12V)) [nM] | IC50 (SW620 (KRAS G12V) [7]) [nM] | IC50 (AGS (KRAS G12D)) [nM] | IC50 [8] [nM] | also measured |
| --- | --- | --- | --- | --- | --- | --- | --- | --- | --- | --- | --- | --- | --- | --- | --- | --- | --- | --- | --- | --- | --- |
| C#Cc1c(F)ccc2cc(O)cc(-c3nc4c5c(nc(OC[C@@]67CCCN6C[C@H](F)C7)nc5c3F)N3CCCC[C@H]3CO4)c12 [compound 1, 5-ethynyl-6-fluoro-4-((S)-4-fluoro-2-(((2R,7aS)-2-fluorotetrahydro-1H-pyrrolizin-7a(5H)-yl)methoxy)-8,8a,9,10,11,12-hexahydro-7-oxa-1,3,6,12a-tetraazabenzo[4,5]cyclohepta[1,2,3-de]naphthalen-5-yl)naphthalen-2-ol] | 27.7 | 4.29 | 7.98 | 5.7 | 18.9 | 3.24 | 49.2 | 9 | 3.46 | 2.8 | 15.2 | 8.16 | 8.60 | 474 | 47.4 | 108 | 35.2 | 9.6 | 14.8 | 14.1 | – |
| CCc1c(F)ccc2cc(O)cc(-c3nc4c5c(nc(OC[C@@]67CCCN6C[C@H](F)C7)nc5c3F)N3CCCC[C@H]3CO4)c12 [compound 2, 5-ethyl-6-fluoro-4-[(8aS)-4-fluoro-2-{[(2R,7aS)-2-fluorotetrahydro-1H-pyrrolizin-7a(5H)-yl]methoxy}-8,8a,9,10,11,12-hexahydro-7-oxa-1,3,6,12a-tetraazabenzo[4,5]cyclohepta[1,2,3-de]naphthalen-5-yl]naphthalen-2-ol] | 76.7 | 65 | 7.38 | 37.2 | 94.5 | 22.1 | 222 | 44 | 19.6 | 11.3 | 68.1 | 7.28 | 7.77 | > 3000 | 145 | 213 | 60.2 | 43.8 | 86.2 | 93.4 | pIC50 (KRAS G12V): 8.74; pIC50 (KRAS G12D): 8.40 |
